Results as given in publication PMC6522927, “Fibrate-based N-acylsulphonamides targeting carbonic anhydrases: synthesis, biochemical evaluation, and docking studies” (Journal of Enzyme Inhibition and Medicinal Chemistry, 2019).
“Also recorded” adds a separate entry of the source.

Columns and labels:
hCA I = biological target: T1, hCA I (Homo sapiens, UniProt P00915); assay: stopped-flow CO2 hydrase assay, hCA I; type: biochemical; conditions: for inhibition of hCA I (in words): result stated in words; for Ki: recombinant hCA I, CO2 hydration, 15 min preincubation
T1 construct: made in house
Procedure: (§1) An Applied Photophysics stopped-flow instrument has been used for assaying the CA catalysed CO2 hydration activity. Phenol red (0.2 mM) has been used as indicator, working at the absorbance maximum of 557 nm, with 20 mM Hepes (pH 7.5, for α-CAs) as buffer, and 20 mM NaClO4 (for maintaining constant the ionic strength), following the initial rates of the CA-catalysed CO2 hydration reaction for a period of 10–100 s. The CO2 concentrations ranged from 1.7 to 17 mM for the determination of the kinetic parameters and inhibition constants. In particular, CO2 was bubbled in distilled deionised water for 30 min till saturation. A CO2 kit (Sigma, Milan, Italy) was used to measure the concentration in serially diluted solutions from the saturated one at the same temperature. For each inhibitor at least six traces of the initial 5–10% of the reaction have been used for determining the initial velocity. The uncatalysed rates were determined in the same manner and subtracted from the total observed rates. Stock solutions of inhibitor ([…]) were prepared in distilled–deionised water and dilutions up to 0.1 nM were done thereafter with the assay buffer. Inhibitor and enzyme solutions were preincubated together for 15 min at room temperature prior to assay, in order to allow for the formation of the E–I complex or for the eventual active site mediated hydrolysis of the inhibitor. The inhibition constants were obtained by non-linear least-squares methods using PRISM 3 and the Cheng–Prusoff equation and represent the average from at least three different determinations. All recombinant CA isoforms were obtained in-house as previously reported[24]^,[25].

hCA IX = biological target: T2, hCA IX (Homo sapiens, UniProt Q16790); assay: stopped-flow CO2 hydrase assay, hCA IX; type: biochemical; conditions: for inhibition of hCA IX (in words): result stated in words
T2 construct: made in house
Procedure: as §1

hCA II = biological target: T3, hCA II (Homo sapiens, UniProt P00918); assay: stopped-flow CO2 hydrase assay, hCA II; type: biochemical; conditions: for inhibition of hCA II (in words): result stated in words; for Ki: recombinant hCA II, CO2 hydration, 15 min preincubation
T3 construct: made in house
Procedure: as §1

hCA XII = biological target: T4, hCA XII (Homo sapiens, UniProt O43570); assay: stopped-flow CO2 hydrase assay, hCA XII; type: biochemical; conditions: result stated in words
T4 construct: made in house
Procedure: as §1

T4 sequence (O43570 25-354): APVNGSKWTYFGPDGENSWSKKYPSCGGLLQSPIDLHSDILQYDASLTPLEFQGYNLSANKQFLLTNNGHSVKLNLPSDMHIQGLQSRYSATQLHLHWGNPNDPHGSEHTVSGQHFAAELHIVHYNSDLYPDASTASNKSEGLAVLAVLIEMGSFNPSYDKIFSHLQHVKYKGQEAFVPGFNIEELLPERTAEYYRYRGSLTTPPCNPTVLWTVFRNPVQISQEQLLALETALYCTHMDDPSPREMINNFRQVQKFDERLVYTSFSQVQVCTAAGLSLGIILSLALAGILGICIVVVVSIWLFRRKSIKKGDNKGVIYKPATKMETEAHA
T1 sequence (P00915 whole entry): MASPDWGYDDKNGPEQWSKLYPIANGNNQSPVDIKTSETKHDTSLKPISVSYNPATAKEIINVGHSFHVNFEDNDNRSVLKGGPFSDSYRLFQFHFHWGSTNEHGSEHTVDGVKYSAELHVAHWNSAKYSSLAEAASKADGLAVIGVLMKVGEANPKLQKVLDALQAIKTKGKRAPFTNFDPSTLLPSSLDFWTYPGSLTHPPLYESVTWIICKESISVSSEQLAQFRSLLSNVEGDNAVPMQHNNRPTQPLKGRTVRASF

SMILES	inhibition of hCA I (in words) (hCA I)	inhibition of hCA IX (in words) (hCA IX)	inhibition of hCA II (in words) (hCA II)	inhibition of hCA XII (in words) (hCA XII)	Ki (hCA I)	melting point	Ki (hCA II)	Ki (hCA IX; recombinant hCA IX, CO2 hydration, 15 min preincubation)
CC(C)(Oc1ccc(CCNC(=O)c2ccc(Cl)cc2)cc1)C(=O)NS(=O)(=O)c1ccccc1 [Compound 17]	moderate inhibition	moderate inhibition	moderate inhibition					
Cc1ccc(C)c(OCCCC(C)(C)C(=O)NS(=O)(=O)c2ccccc2)c1 [Compound 16]	completely inactive	completely inactive	completely inactive	completely inactive				
CC(C)(Oc1ccc(C(=O)c2ccc(Cl)cc2)cc1)C(=O)NS(=O)(=O)c1ccc(NC(=O)c2ccccc2)cc1 [Compound 24, N-{4-[({2-[4–(4-chlorobenzoyl)phenoxy]-2-methylpropanoyl}amino)sulfonyl]phenyl} benzamide]	marked effect		marked effect		< 10000 nM	232 to 234 °C	77 nM	
CC(C)(Oc1ccc(C(=O)c2ccc(Cl)cc2)cc1)C(=O)NS(=O)(=O)c1ccc(Cl)cc1 [Compound 21, 2-[4–(4-Chlorobenzoyl)phenoxy]-N-[(4-chlorophenyl)sulfonyl]-2-methylpropanamide]					< 10000 nM	204 to 205 °C (dec.)		
CCCC(Oc1ccc(C(=O)c2ccccc2)cc1)C(=O)NS(=O)(=O)c1ccccc1 (stereo not shown) [Compound 27, 2-(4-Benzoylphenoxy)-N-(phenylsulphonyl)pentanamide]	did not induce a sensible inhibition	did not induce a sensible inhibition	did not induce a sensible inhibition	did not induce a sensible inhibition				
CC(C)(Oc1ccc(C(=O)c2ccc(Cl)cc2)cc1)C(=O)NS(=O)(=O)c1ccc([N+](=O)[O-])cc1 [Compound 22, 2-[4–(4-Chlorobenzoyl)phenoxy]-2-methyl-N-[(4-nitrophenyl)sulfonyl]propanamide]						196 to 198 °C	16 nM	
CC(C)(Oc1ccc(Cl)cc1)C(=O)NS(=O)(=O)c1ccccc1 [Compound 15]	completely inactive	completely inactive	completely inactive	completely inactive				
O=C(COc1ccc(C(=O)c2ccccc2)cc1)NS(=O)(=O)c1ccccc1 [Compound 26, 2-(4-Benzoylphenoxy)-N-(phenylsulphonyl)acetamide]	did not induce a sensible inhibition	did not induce a sensible inhibition	did not induce a sensible inhibition	did not induce a sensible inhibition		61 to 62 °C		
CC(=O)Nc1ccc(S(=O)(=O)NC(=O)C(C)(C)Oc2ccc(C(=O)c3ccc(Cl)cc3)cc2)cc1 [Compound 23, N-{[4-(acetylamino)phenyl]sulfonyl}-2-[4–(4-chlorobenzoyl)phenoxy]-2-methylpropanamide]						226 to 228 °C		
COc1ccc(S(=O)(=O)NC(=O)C(C)(C)Oc2ccc(C(=O)c3ccc(Cl)cc3)cc2)cc1 [Compound 20, 2-[4-(4-Chlorobenzoyl)phenoxy]-N-[(4-methoxyphenyl)sulfonyl]-2-methylpropanamide]						188 to 189 °C		
CC(C)(Oc1ccc(C(=O)c2ccc(Cl)cc2)cc1)C(=O)NS(=O)(=O)c1ccccc1 [Compound 18]	moderate inhibition; also recorded: submicromolar	moderate inhibition; also recorded: submicromolar	moderate inhibition		< 10000 nM		1300 nM	440 nM
